The subject of data set [1] is Tagia sp. Conditions: acute; mortality.
The subject of data set [2] is Anas platyrhynchos.
Data set [3] deals with Daphnia magna. Conditions: chronic/long-term; duration: 21 days; reproduction.
The subject of data set [4] is Rattus norvegicus. Conditions: for NOAEL: chronic.
The test system of data set [5] is Aphidius rhopalosiphi. Conditions: acute; duration: 7 days; mortality.
The subject of data set [6] is Canidae. Conditions: subchronic; duration: 90 days; oral; Dog Other; body weight.
Data set [7] has as its system Chrysoperla externa. As to conditions: not reported; mortality.
The test system of data set [8] is Oncorhynchus mykiss.
Data set [9] concerns Colinus virginianus. Conditions: oral.
Data set [10] concerns Apis mellifera. As to conditions: acute; duration: 48 hours; oral; unspecified; mortality.
Setting [11] is: short-term, oral, feed, mortality.

On to `CCS(=O)(=O)c1cccnc1S(=O)(=O)NC(=O)Nc1nc(OC)cc(OC)n1` [Rimsulfuron], for which the LC50 in data set [1] is above 1000 mg/kg; in [2] (setting [11]), above 5620 mg/kg; in [8] (acute, duration: 96 hours, mortality) it was above 390 µg/mL; in [9] (acute, diet, mortality) it was above 5620 mg/kg. Also, the LD50 in data set [2] (acute, oral, unspecified, mortality) was above 2250 mg/kg; in data set [2] (setting [11]), above 1610 mg/kg-day; in data set [4] (acute, oral, mortality), above 5000 mg/kg; in [9] (acute, mortality) it was above 2250 mg/kg; in data set [10], above 100 µg/piece. Further, the NOAEL – broadly, the highest tested level that showed no adverse finding – in [2] (reproductive) was 1250 mg/kg; in data set [4], 3000 mg/kg-day; in data set [4] (duration: 2 years, oral, body weight), 11.8 mg/kg-day; in [6] it was 9.63 mg/kg-day. Further, the NOEC in [2] (short-term, oral, feed) was determined as 5620 mg/kg; in [3] it was 1 mg/L; in data set [8] (chronic/long-term, duration: 21 days, growth), 125 mg/L; in data set [9] (short-term, diet) it was 5620 mg/kg-day. Besides, the figures for the LEL in data set [5] and in [7] were below 37.5 g/ha and 37500 g/ha, respectively.

For the origin of these results see EPA's ToxValDB 9.5 (doi:10.2903/j.efsa.2005.45r).
